Data taken from US20080207708A1, “Oxazole and Thiazole Compounds and Their Use in the Treatment of Pge2 Mediated Disorders” (GLAXO GROUP LIMITED, priority 2005, published 2008).
Counter-ions that a name gives are not always drawn.

What was measured:
[1] = target: T1, EP1 receptors (Homo sapiens, UniProt P34995); assay: human EP1 calcium mobilisation assay (CHO-K1 cells, FLIPR, PGE2); type: cell-based; set-up: expressed in transfected cells; host or cells: CHO-K1 cells, pCIN vector; conditions: free bases or sodium salts; averages of a number of experiments; read-out: functional pKi value, human EP1 calcium mobilisation assay (converted)
T1 sequence (P34995 1-402): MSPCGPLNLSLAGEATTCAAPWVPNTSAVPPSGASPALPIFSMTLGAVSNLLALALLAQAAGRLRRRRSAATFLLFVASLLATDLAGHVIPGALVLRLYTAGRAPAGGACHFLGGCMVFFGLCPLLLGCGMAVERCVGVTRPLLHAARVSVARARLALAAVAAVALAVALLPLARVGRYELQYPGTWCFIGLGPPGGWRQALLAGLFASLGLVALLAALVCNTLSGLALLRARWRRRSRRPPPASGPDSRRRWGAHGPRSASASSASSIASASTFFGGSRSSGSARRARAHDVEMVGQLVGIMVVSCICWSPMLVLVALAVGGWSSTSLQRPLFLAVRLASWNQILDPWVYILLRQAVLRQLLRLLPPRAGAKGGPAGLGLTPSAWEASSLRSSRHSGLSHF
Method: Briefly, the antagonist properties of compounds are assessed by their ability to inhibit the mobilisation of intracellular calcium ([Ca^2+]i) in response to activation of EP1 or EP3 receptors by the natural agonist hormone prostaglandin E2 (PGE2). Increasing concentrations of antagonist reduce the amount of calcium that a given concentration of PGE2 can mobilise. The net effect is to displace the PGE2 concentration-effect curve to higher concentrations of PGE2. The amount of calcium produced is assessed using a calcium-sensitive fluorescent dye such as Fluo-4, AM and a suitable instrument such as a Fluorimetric Imaging Plate Reader (FLIPR). Increasing amounts of [Ca^2+]i produced by receptor activation increase the amount of fluorescence produced by the dye and give rise to an increasing signal. The signal may be detected using the FLIPR instrument and the data generated may be analysed with suitable curve-fitting software.
The human EP1 or EP3 calcium mobilisation assay (hereafter referred to as ‘the calcium assay’) utilises Chinese hamster ovary-K1 (CHO-K1) cells into which a stable (pCIN; BioTechniques 20 (1996): 102-110) vector containing either EP1 or EP3 cDNA has previously been transfected. Cells are cultured in suitable flasks containing culture medium such as DMEM:F-12 supplemented with 10% v/v foetal calf serum, 2 mM L-glutamine, 0.25 mg/ml geneticin, 100 μM flurbiprofen and 10 µg/ml puromycin. For assay, cells are harvested using a proprietary reagent that dislodges cells such as Versene. Cells are re-suspended in a suitable quantity of fresh culture media for introduction into a 384-well plate. Following incubation for 24 hours at 37° C. the culture media is replaced with a medium containing Fluo-4 and the detergent pluronic acid, and a further incubation takes place. Concentrations of compounds are then added to the plate in order to construct concentration-effect curves. This may be performed on the FLIPR in order to assess the agonist properties of the compounds. Concentrations of PGE2 are then added to the plate in order to assess the antagonist properties of the compounds. The data so generated may be analysed by means of a computerised curve-fitting routine. The concentration of compound that elicits a half-maximal inhibition of the calcium mobilisation induced by PGE2 (pIC50) may then be estimated.

[2] = target: T1, EP1 receptors; assay: Binding assay for the human prostanoid EP1 receptor (competition with [3H]-PGE2); set-up: expressed in transfected cells; host or cells: CHO-K1 cells, membrane fraction; conditions: [3H]-PGE2 competition; averages of a number of experiments; read-out: pIC50 value, binding assay for the human prostanoid EP1 receptor (converted)
Procedure, shortened: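 Competition against 3 nM (final) tritiated PGE2 at 30° C for 30 min, pH 6 MES assay buffer, using membranes of stably transfected CHO-K1 cells. Filter-retained counts by scintillation; nonlinear curve fitting gives concentration inhibiting 50% of specific binding.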

| SMILES | Ki [1] | IC50 [2] |
| --- | --- | --- |
| O=C(Nc1ccc(CN2CCCCC2)cc1)c1csc(Cc2cc(Cl)ccc2OCc2ccccc2)n1 [Example 121, 2-({5-Chloro-2-[(phenylmethyl)oxy]phenyl}-methyl)-N-[4-(1-piperidinylmethyl)phenyl]-1,3-thiazole-4-carboxamidehydrochloride] | > 1 µM | ≤ 1 µM |
| CC(C)COc1ccc(Cl)cc1Cc1nc(-c2nc3ccc(CCN(C)C)cc3[nH]2)cs1 [Example 116, (2-{2-[2-({5-Chloro-2-[(2-methylpropyl)oxy]-phenyl}methyl)-1,3-thiazol-4-yl]-1H-benzimidazol-5-yl}ethyl)dimethylamine] | < 1 µM | ≤ 0.0316 µM |
| O=C(Nc1nnn[nH]1)c1csc(Cc2cc(Cl)ccc2OCc2ccccc2)n1 [Example 98, 2-({5-Chloro-2-[(phenylmethyl)oxy]phenyl}methyl)-N-1H-tetrazol-5-yl-1,3-thiazole-4-carboxamide] | ≤ 0.0316 µM | ≤ 1 µM |
| CC(C)(C(=O)O)c1csc(-c2cc(Cl)ccc2OCc2ccccc2)n1 [Example 48, Sodium 2-(2-{5-chloro-2-[(phenylmethyl)oxy]phenyl}-1,3-thiazol-4-yl)-2-methylpropanoate] | < 1 µM | ≤ 1 µM |
| O=C(O)Cc1coc(-c2cc(Cl)ccc2OCc2c(F)cc(F)cc2F)n1 [Example 80, [2-(5-chloro-2-{[(2,4,6-trifluorophenyl)methyl]oxy}phenyl)-1,3-oxazol-4-yl]acetic acid] | > 1 µM | ≤ 1 µM |
| CC(C)COc1ccc(Cl)cc1Cc1nc(-c2nc3ccc(CN(C)C)cc3[nH]2)cs1 [Example 124, ({2-[2-({5-Chloro-2-[(2-methylpropyl)oxy]phenyl}-methyl)-1,3-thiazol-4-yl]-1H-benzimidazol-5-yl}methyl)dimethylaminehydrochloride] | < 1 µM | ≤ 0.0316 µM |
| O=C(Nc1ccc(CN2CCOCC2)cc1)c1csc(Cc2cc(Cl)ccc2OCc2ccccc2)n1 [Example 120, 2-({5-Chloro-2-[(phenylmethyl)oxy]phenyl}-methyl)-N-[4-(4-morpholinylmethyl)phenyl]-1,3-thiazole-4-carboxamidehydrochloride] | > 1 µM | ≤ 1 µM |
| CC(C(=O)O)c1csc(-c2cc(Br)ccc2OCc2ccccc2)n1 (stereo not shown) [Example 47, Sodium 2-(2-{5-bromo-2-[(phenylmethyl)oxy]phenyl}-1,3-thiazol-4-yl)propanoate] | < 1 µM | ≤ 1 µM |
| CN1CCN(CCc2ccc3nc(-c4csc(Cc5cc(Cl)ccc5OCc5ccccc5)n4)[nH]c3c2)CC1 [Example 115, 2-[2-({5-chloro-2-[(phenylmethyl)oxy]-phenyl}methyl)-1,3-thiazol-4-yl]-5-[2-(4-methyl-1-piperazinyl)ethyl]-1H-benzimidazole] | < 1 µM | ≤ 0.0316 µM |
| CC(C)(C(=O)O)c1csc(-c2cc(Br)ccc2OCc2ccccc2)n1 [Example 49, Sodium 2-(2-{5-bromo-2-[(phenylmethyl)oxy]phenyl}-1,3-thiazol-4-yl)-2-methylpropanoate] | < 1 µM | ≤ 1 µM |
| O=C(NS(=O)(=O)c1ccccc1)c1csc(Cc2cc(Cl)ccc2OCc2ccc(F)cc2)n1 [Example 101, 2-[(5-Chloro-2-{[(4-fluorophenyl)methyl]-oxy}phenyl)methyl]-N-(phenylsulfonyl)-1,3-thiazole-4-carboxamide] | < 1 µM | ≤ 0.0316 µM |

Now from value to compound:

| Ki [1] | IC50 [2] | SMILES |
| --- | --- | --- |
| < 1 µM | ≤ 0.0316 µM | CC(C)COc1ccc(Cl)cc1Cc1nc(-c2nc3ccc(CCN(C)C)cc3[nH]2)co1 [Example 166, (2-{2-[2-({5-Chloro-2-[(2-methylpropyl)oxy]phenyl}methyl)-1,3-oxazol-4-yl]-1H-benzimidazol-5-yl}ethyl)dimethylamine hydrochloride] |
| < 1 µM | ≤ 0.0316 µM | Clc1ccc(OCc2ccccc2)c(Cc2nc(-c3nc4cc5cn[nH]c5cc4[nH]3)cs2)c1 [Example 150, 6-[2-({5-Chloro-2-[(phenylmethyl)oxy]phenyl}methyl)-1,3-thiazol-4-yl]-1,5-dihydroimidazo[4,5-f]indazolehydrochloride] |
| < 1 µM | ≤ 1 µM | Clc1ccc(OCc2ccccc2)c(Cc2nc(-c3nc4ncccc4[nH]3)cs2)c1 [Example 133, 2-[2-({5-Chloro-2-[(phenylmethyl)oxy]phenyl}methyl)-1,3-thiazol-4-yl]-1H-imidazo[4,5-b]pyridine] |
| < 1 µM | ≤ 0.0316 µM | OCCc1ccc2nc(-c3csc(Cc4cc(Cl)ccc4OCc4ccccc4)n3)[nH]c2c1 [Example 153, 2-{2-[2-({5-Chloro-2-[(phenylmethyl)oxy]phenyl}methyl)-1,3-thiazol-4-yl]-1H-benzimidazol-5-yl}ethanol] |
| < 1 µM | ≤ 1 µM | Clc1ccc(OCc2ccccc2)c(Cc2nc(-c3nc4ccc(CN5CCCCC5)cc4[nH]3)co2)c1 [Example 172, 2-[2-({5-chloro-2-[(phenylmethyl)oxy]phenyl}-methyl)-1,3-oxazol-4-yl]-5-(1-piperidinylmethyl)-1H-benzimidazolehydrochloride] |
| < 1 µM | ≤ 0.0316 µM | CC(C)COc1ccc(Cl)cc1Cc1nc(-c2nc3ccc(CN4CCOCC4)cc3[nH]2)cs1 [Example 125, 2-[2-({5-Chloro-2-[(2-methylpropyl)oxy]phenyl}-methyl)-1,3-thiazol-4-yl]-5-(4-morpholinylmethyl)-1H-benzimidazolehydrochloride] |
| < 1 µM | ≤ 0.0316 µM | CN1CCN(c2ccc3[nH]c(-c4csc(Cc5cc(Cl)ccc5OCc5ccccc5)n4)nc3n2)CC1 [Example 151, 2-[2-({5-Chloro-2-[(phenylmethyl)oxy]phenyl}methyl)-1,3-thiazol-4-yl]-5-(4-methyl-1-piperazinyl)-1H-imidazo[4,5-b]pyridine hydrochloride] |
| < 1 µM | ≤ 1 µM | O=C(O)c1cccc2nc(-c3csc(Cc4cc(Cl)ccc4OCc4ccccc4)n3)[nH]c12 [Example 139, 2-[2-({5-Chloro-2-[(phenylmethyl)oxy]phenyl}methyl)-1,3-thiazol-4-yl]-1H-benzimidazole-4-carboxylic acid] |
| < 1 µM | ≤ 1 µM | CC(C)C(=O)Nc1csc(Cc2cc(Cl)ccc2OCc2ccccc2)n1 [Example 129, N-[2-({5-Chloro-2-[(phenylmethyl)oxy]phenyl}methyl)-1,3-thiazol-4-yl]-2-methylpropanamide] |
| < 1 µM | ≤ 1 µM | Cc1nnc(-c2csc(Cc3cc(Cl)ccc3OCC(C)C)n2)[nH]1 [Example 158, 3-[2-({5-Chloro-2-[(2-methyl-propyl)oxy]-phenyl}methyl)-1,3-thiazol-4-yl]-5-methyl-1H-1,2,4-triazole] |
| < 1 µM | ≤ 0.0316 µM | CC(C)COc1ccc(Cl)cc1Cc1nc(-c2nc3ccc(CN4CCCC4)cc3[nH]2)co1 [Example 176, 2-[2-({5-chloro-2-[(2-methylpropyl)oxy]phenyl}methyl)-1,3-oxazol-4-yl]-5-(1-pyrrolidinylmethyl)-1H-benzimidazoledihydrochloride] |
| ≤ 0.0316 µM | ≤ 1 µM | CC(C)COc1ccc(Cl)cc1Cc1nc(-c2nc3ccc(N4CCOCC4)nc3[nH]2)cs1 [Example 144, 2-[2-({5-Chloro-2-[(2-methylpropyl)oxy]phenyl}methyl)-1,3-thiazol-4-yl]-5-(4-morpholinyl)-1H-imidazo[4,5-b]pyridine] |
